From PMC7751408, “Production, purification and biochemical characterisation of a novel lipase from a newly identified lipolytic bacterium Staphylococcus caprae NCU S6” (Journal of Enzyme Inhibition and Medicinal Chemistry, 2020)

System: T1, SCNL (lipase from Staphylococcus caprae NCU S6)
T1 construct: native extracellular enzyme purified from culture supernatant of the source strain (ammonium sulphate, ultrafiltration, Sephadex G-50, DEAE-Sepharose); ~87 kDa by SDS-PAGE
Experiment: colorimetric p-nitrophenol release at […] nm, Lineweaver-Burk
Assay type: biochemical
Conditions: 0.1-5.0 mM p-NPP, optimum conditions (optimal pH 9.0 and 40 °C); free enzyme

Question: How did the Km turn out when `CCCCCCCCCCCCCCCC(=O)Oc1ccc([N+](=O)[O-])cc1` [p-nitrophenyl palmitate] was run?
Answer: The Km was 695 µM.
